The IC50 is the concentration needed to halve the response being measured.

Results on five compounds are retold here after article PMC5308787, “Isoprenoid-phospholipid conjugates as potential therapeutic agents: Synthesis, characterization and antiproliferative studies” (PLoS ONE, 2017).

The subject of test [1] is LoVo (colon cancer). Put plainly: Antiproliferative SRB assay, 72 h exposure. It counts as cell-based, human. As to conditions: LoVo; for IC50: Homo sapiens, SRB, 72 h, mean ± SD of 3–5 experiments, n.a. = no activity in concentration of 5, 25, 125, 625 μM. How it is done:
(§1) The biological studies were performed in vitro using human cancer cell lines: MV4-11 (human biphenotypic B myelomonocytic leukaemia), A-549 (non-small cell lung cancer), MCF-7 (breast cancer), LoVo (colon cancer), LoVo/DX (colon cancer drug resistant), HepG2 (liver cancer) and BALB/3T3 (normal mice fibroblasts). These lines were obtained from American Type Culture Collection (Rockville, Maryland, U.S.A.). The cell line is being maintained in the Institute of Immunology and Experimental Therapy, Wroclaw, Poland. All cell lines were grown at 37°C with 5% CO2 humidified atmosphere and were cultured in cultured medium according to the method described before.
(§2) Prior to usage, the compounds were dissolved in DMSO or in mixture of 99.8% ethanol and DMSO (1:1) to the concentration of 25 or 50 mM, and subsequently diluted in culture medium to reach the required concentrations (ranging from 5 to 625 μM).
(§3) Twenty-four hours prior to the addition of tested compounds, the cells were plated in 96-well plates (Sarstedt, Germany) at a density of 1 × 10^4 cells per well in 100 μL of culture medium. The assay was performed after 72 h of exposure to varying concentrations of the tested agents. The in vitro cytotoxic effect of tested agents was examined using the MTT (for MV4-11 cells) or SRB assay which were described previously. Each compound in each concentration was tested in triplicate in a single experiment, which was repeated 3–5 times.
(§4) The results of antiproliferative activity were given as IC50 values. Using this parameter we calculated also the resistance indexes (RI) dividing the IC50 values of selected compounds estimated for drug resistant cell LOVO/DX line by respective values designated for drug sensitive LoVo line. According to Harker et al. three categories of the cells could be distinguished: (a) the cells are drug-sensitive—if the ratio approaches 0–2; (b) the cells are moderately drug-resistant—if the ratio ranges from 2 to 10; (c) the cells are markedly drug-resistant—if the ratio is higher than 10.
(In general: In SRB staining, fixed cells bind dye roughly in proportion to their protein.)

The subject of test [2] is LoVo/DX (colon cancer drug resistant). The test is described as follows: Antiproliferative SRB assay, 72 h exposure. In kind it is cell-based, human. Particulars: Homo sapiens, LoVo/DX, mean ± SD of 3–5 experiments, n.a. = no activity in concentration of 5, 25, 125, 625 μM. The protocol:
as §1, §2, §3, §4

Test [3] has as its system HepG2 (liver cancer). Put plainly: Antiproliferative SRB assay, 72 h exposure. It counts as cell-based, human. As to conditions: Homo sapiens, HepG2, mean ± SD of 3–5 experiments, n.a. = no activity in concentration of 5, 25, 125, 625 μM. The protocol:
as §1, §2, §3, §4

Test [4] deals with MCF-7 (breast cancer). The test is described as follows: Antiproliferative SRB assay, 72 h exposure. In kind it is cell-based, human. Particulars: Homo sapiens, MCF7, mean ± SD of 3–5 experiments, n.a. = no activity in concentration of 5, 25, 125, 625 μM. How it is done: as §1, §2, §3, §4
Test [5] deals with A-549 (non-small cell lung cancer). Put plainly: Antiproliferative SRB assay, 72 h exposure. Particulars: Homo sapiens, A549, mean ± SD of 3–5 experiments, n.a. = no activity in concentration of 5, 25, 125, 625 μM. In kind it is cell-based, human. How it is done: as §1, §2, §3, §4
For test [6], the system named is lung (A549), colon (LoVo) and liver (HepG2) cancer cell lines. The test is described as follows: Antiproliferative activity, range over several cancer cell lines as stated in text. In kind it is cell-based. Particulars: Homo sapiens, read-out: IC50 against lung (A549), colon (LoVo) and liver (HepG2) cancer cell lines. The protocol:
as §1, §2
Twenty-four hours prior to the addition of tested compounds, the cells were plated in 96-well plates (Sarstedt, Germany) at a density of 1 × 10^4 cells per well in 100 μL of culture medium. […]
The results of antiproliferative activity were given as IC50 values. Using this parameter we calculated also the resistance indexes (RI) dividing the IC50 values of selected compounds estimated for drug resistant cell LOVO/DX line by respective values designated for drug sensitive LoVo line. […]

The subject of test [7] is drug resistant LOVO/DX line vs drug sensitive LoVo line. Put plainly: Resistance index (RI): IC50 LOVO/DX divided by IC50 LoVo. It counts as cell-based, human. As to conditions: for able to overcome the barrier of P-gp-dependent resistance: judged from RI; for Resistance index (RI): RI = IC50 resistant line / IC50 non-resistant line, 0<RI<2 able to overcome drug resistance, 2<RI<10 moderate ability, RI>10 no influence.
Text: as §4

In test [8] the test system is BALB/3T3 (normal mice fibroblasts). Put plainly: Antiproliferative SRB assay, 72 h exposure. As to conditions: Mus musculus, BALB/3T3, mean ± SD of 3–5 experiments, n.a. = no activity in concentration of 5, 25, 125, 625 μM. It counts as cell-based. How it is done: as §1, §2, §3, §4
The test system of test [9] is MV4-11 (human biphenotypic B myelomonocytic leukaemia). Put plainly: Antiproliferative MTT assay, 72 h exposure. It counts as cell-based. Particulars: Homo sapiens, MV4-11, mean ± SD of 3–5 independent experiments. The protocol:
as §1, §2, §3, §4
A general note: Tetrazolium assays rely on reduction of a dye to a coloured formazan, in cell work by metabolically active cells.

The structures appear in SMILES notation.

For `C=CC(C)(CC/C=C(\C)CCC=C(C)C)CC(=O)OC[C@H](COP(=O)([O-])OCC[N+](C)(C)C)OC(=O)CC(C)(C=C)CC/C=C(\C)CCC=C(C)C` (some centres unmarked) [Compound 6b], the half-inhibitory concentration (IC50) in test [1] was 13.6 ± 0.7 µM; in test [2], 57.6 ± 0.6 µM; in test [3], 53.6 ± 5.1 µM; in test [4], 45 ± 1.4 µM; in test [5], 30.4 ± 1.5 µM; in [6], 13.6 to 57.8 µM. Besides, the results for the concentration for half-maximal inhibition (IC50) in test [8] and in test [9] were 57.8 ± 1.4 µM and 27.8 ± 7.52 µM, respectively. Also, in test [1], the “activity against colon cancer cell line, fold lower than cisplatin” value came to 5 fold. Moreover, in test [7], the “able to overcome the barrier of P-gp-dependent resistance” value (from here on “able … of P-gp-dependent resistance”) was “exception”.
Regarding `C=CC(C)(CCC=C(C)C)CC(=O)O[C@H](COC(=O)CCCCCCCCCCCCCCC)COP(=O)([O-])OCC[N+](C)(C)C` (stereo partly drawn) [Compound 7a, (2’R)-1’-palmitoyl-2’-[(3R)-3,7-dimethyl-3-vinylocta-6-enyl]-sn-glycero-3’-phosphocholine + (2’R)-1’-palmitoyl-2’-[(3S)-3,7-dimethyl-3-vinylocta-6-enyl]-sn-glycero-3’-phosphocholine], the IC50 in test [1] worked out at 57.4 ± 0.7 µM; in test [2] it was 154 ± 7.9 µM; in test [3] it was 159 ± 31.2 µM; in [4], 66.6 ± 4.2 µM; in [5] it was 72.6 ± 1.6 µM; in [8] it was 246 ± 13.9 µM. This compound also had an IC50 in test [9] of 95 ± 15.2 µM. In test [7], the “Resistance index (RI)” value is given as 1.91. For the same compound, in [7], the “able … of P-gp-dependent resistance” value is on record as “exception”.
Take `C=CC(C)(CC/C=C(\C)CCC=C(C)C)CC(=O)O[C@H](COC(=O)CCCCCCCCCCCCCCC)COP(=O)([O-])OCC[N+](C)(C)C` (stereo partly drawn) [Compound 7b, (2'R)-1’-palmitoyl-2’-[(3R,6E)-3,7,11-trimethyl-3-vinyldodeca-6,10-dienyl]-sn-glycero-3’-phosphocholine + (2'R)-1’-palmitoyl-2’-[(3S,6E)-3,7,11-trimethyl-3-vinyldodeca-6,10-dienyl]-sn-glycero-3’-phosphocholine]: the concentration for half-maximal inhibition (IC50) in test [1] was 251 ± 22.7 µM; in test [2], 486 ± 17.4 µM; in test [3], 272 ± 24.7 µM; in test [4] it was 98.7 ± 15.6 µM; in test [5] it was 111 ± 12.9 µM; in test [8], 518 ± 69.8 µM. Moreover, in [9], inhibition was half-maximal at 50.3 ± 5.37 µM (IC50). Moreover, in test [7], the “Resistance index (RI)” value worked out at 1.16.
Take `CCC/C=C1/C(C)(C)CCCC1(C)CC(=O)O[C@H](COC(=O)CCCCCCCCCCCCCCC)COP(=O)([O-])OCC[N+](C)(C)C` (stereo partly drawn) [Compound 7c, (2’R)-1’-palmitoyl-2’-{2-[(3R,2"E)-2"-butylidene-1",3",3"-trimethyl]cyclohexyl}acetyl-sn-glycero-3’-phospocholine + (2’R)-1’-palmitoyl-2’-{2-[(3S,2"E)-2"-butylidene-1",3",3"-trimethyl]cyclohexyl}acetyl-sn-glycero-3’-phospocholine]: the IC50 in test [1] worked out at 54.4 ± 3.2 µM; in [2] it was 111 ± 19.4 µM; in test [3] it was 134 ± 51 µM; in [4], 89.7 ± 11.3 µM; in [5], 75.7 ± 10.6 µM; in test [8] it was 276 ± 25.7 µM. For the same compound, half-maximal inhibition in [9] (IC50) was put at 65.1 ± 12.2 µM. The “Resistance index (RI)” value in [7] is 1.35. In addition, the “able … of P-gp-dependent resistance” value in test [7] is recorded as “exception”.
On to `C=CC(C)(CC/C=C(\C)CCC=C(C)C)CC(=O)OC[C@@H](O)COP(=O)([O-])OCC[N+](C)(C)C` (some centres unmarked) [Compound 8b], for which the IC50 in [1] stood at 241 ± 15.1 µM; in test [2], 280 ± 44.4 µM; in [3], 344 ± 40.9 µM; in [4], 250 ± 45.2 µM; in test [5] it was 260 ± 33.6 µM; in test [8] it was 297 ± 18.6 µM. In test [9], this compound had a half-inhibitory concentration (IC50) of 112 ± 39.8 µM. Moreover, in [7], the “Resistance index (RI)” value is given as 1.99.
